These results are taken from ChEMBL document CHEMBL1131708, “Synthesis and protein kinase C binding activity of benzolactam-V7” (Bioorg Med Chem Lett, 1999).

Assay [1] concerns the target T1, Protein kinase C alpha type (Homo sapiens, UniProt P17252). Put plainly: Displacement of phorbol 12,13-dibutyrate (PDBU) from recombinant Protein kinase C alpha.
Assay [2] deals with T1, Protein kinase C alpha type. Put plainly: Displacement of phorbol 12,13-dibutyrate (PDBU) from recombinant Protein kinase C alpha (Inactive at 300 nM).

Regarding `CCCCCCCCC#Cc1ccc2c(c1)[C@@H](CO)NC(=O)[C@H](C(C)C)N2C`, in assay [1], the Ki (commonly the dissociation constant of the complex between target and ligand, obtained from inhibition or displacement) was determined as 21 µM.
Same read-out and setting: the figure for `CC(C)[C@H]1C(=O)N[C@H](CO)c2ccccc2N1C` is 127 µM.
For `CC(C)[C@H]1C(=O)NC(CO)c2ccccc2N1C` (single isomer, unassigned), in assay [2], the inhibition constant (Ki) result is given as “Not Active”.
